The values that follow come from patent US7398119B2, “Assessing blood brain barrier dynamics or identifying or measuring selected substances, including ethanol or toxins, in a subject by analyzing Raman spectrum signals” (Childrens Hospital Los Angeles, priority 1998, dated 2008).

The conditions of series [1]: blood alcohol and brain alcohol levels; cited from earlier work.
Series [2] is described as follows: Correlation of aqueous humor glucose with rising blood glucose after ketamine/xylazine anesthesia. Format: in vivo, New Zealand white rabbits. The settings on record: xylazine 7.5 mg/kg with ketamine 50 mg/kg, single intramuscular injection. The protocol:
Nine female New Zealand white rabbits were used for this part of the study. They were anesthetized with ketamine (50 mg/kg) and xylazine (7.5 mg/kg) given as a single intramuscular injection. Xylazine blocks release of insulin from the pancreas and causes blood glucose to rise (K. Chalabi et al., Ophthalmic Res. 19, 289 (1987); J. Arnbjerg et al., Ophthalmic Res. 22, 265 (1990)).
Blood samples were taken from the central ear arteries at various times following the injection of anesthetic once the animals were adequately anesthetized. Whole blood was immediately measured for glucose concentration with a commercial glucometer (Glucometer Elite, Bayer). In most instances two measurements were made. The average measurements are reported. If the measurements differed by more than 20%, a third measurement was made. […]
At various times after induction of anesthesia, samples of aqueous humor were taken. […] Aqueous humor glucose concentration was measured with the glucometer in a manner similar to the blood. […]
Average blood glucose concentrations for each animal were plotted against time after anesthetic injection. Since it was not possible to obtain blood samples simultaneous with aqueous humor samples, a best-fit second-order polynomial was calculated for each animal. […] Aqueous humor glucose concentration was then plotted against the calculated simultaneous blood glucose concentration for all animals. […]

SMILES strings stand for the structures.

For the compound `CCO` [alcohol, ethanol], the “concentrations that may be lethal” value in series [1] is reported as “above 1%”.

As for `Cc1cccc(C)c1N=C1NCCCS1` [xylazine], the “effect on blood glucose over time” value in series [2] is “steadily rises at variable rates”.
